This is an account of results in US20250215030A1, “STAT MODULATORS AND USES THEREOF” (Recludix Pharma, Inc., priority 2022, published 2025).

As usually defined, the IC50 is the concentration that inhibits the measured activity by half.

Test [1] deals with T1, Recombinant STAT6 protein (STAT6(W123-T658)) (Homo sapiens, UniProt P42226).
T1 construct: STAT6(W123-T658)
T1 sequence (P42226 123-658): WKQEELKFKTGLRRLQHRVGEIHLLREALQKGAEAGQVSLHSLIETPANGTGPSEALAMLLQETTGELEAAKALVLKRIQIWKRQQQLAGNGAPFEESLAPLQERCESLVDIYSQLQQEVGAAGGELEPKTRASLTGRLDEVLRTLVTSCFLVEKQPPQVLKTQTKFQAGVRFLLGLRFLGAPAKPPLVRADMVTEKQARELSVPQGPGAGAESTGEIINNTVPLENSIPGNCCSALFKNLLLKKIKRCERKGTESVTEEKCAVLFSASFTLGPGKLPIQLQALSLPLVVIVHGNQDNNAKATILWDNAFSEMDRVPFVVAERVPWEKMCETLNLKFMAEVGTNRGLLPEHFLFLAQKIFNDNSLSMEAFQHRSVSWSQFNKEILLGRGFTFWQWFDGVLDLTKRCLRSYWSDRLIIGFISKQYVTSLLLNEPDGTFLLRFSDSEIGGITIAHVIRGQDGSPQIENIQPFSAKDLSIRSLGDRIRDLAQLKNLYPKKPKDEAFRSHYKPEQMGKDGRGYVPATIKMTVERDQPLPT
The test can be described thus: STAT6 Fluorescence Polarization (FP) Assay. In kind it is binding. The settings on record: STAT6(W123-T658) 250 nM, probe 5-FAM-ApYKPFQDLI-NH2 2 nM, 45-minute incubation. The gist of the method: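 Competitive displacement of a fluorescent phosphotyrosine peptide (2 nM) from recombinant STAT6 W123-T658 (250 nM), 45 min at room temperature in 10 mM HEPES pH 7.4, 50 mM NaCl, 2 mM DTT. mP fitted against log compound for IC50, grouped A (≤300 nM) to D (>30 μM).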
(In general: Polarisation of emitted light reports the rotation of a fluorescent probe.)

Test [2] addresses T2, Recombinant STAT3 protein (STAT3(G127-I722)) (Homo sapiens, UniProt P40763).
T2 construct: STAT3(G127-I722)
The test can be described thus: STAT3 Fluorescence Polarization (FP) Assay. In kind it is binding. To be noted: STAT3(G127-I722) 25 nM, probe 5-FAM-GpYLPQTV-NH2 2 nM, 45-minute incubation. Put shortly: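 Serially diluted compounds (1% DMSO) were mixed with 2 nM fluorescent phosphotyrosine peptide and 25 nM STAT3 construct G127-I722, pH 7.4, incubated 45 min at room temperature. IC50 values from fitted polarization curves are reported as categories A (≤100 nM), B, C, D (>10 μM).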

T2 sequence (P40763 127-722, species assumed): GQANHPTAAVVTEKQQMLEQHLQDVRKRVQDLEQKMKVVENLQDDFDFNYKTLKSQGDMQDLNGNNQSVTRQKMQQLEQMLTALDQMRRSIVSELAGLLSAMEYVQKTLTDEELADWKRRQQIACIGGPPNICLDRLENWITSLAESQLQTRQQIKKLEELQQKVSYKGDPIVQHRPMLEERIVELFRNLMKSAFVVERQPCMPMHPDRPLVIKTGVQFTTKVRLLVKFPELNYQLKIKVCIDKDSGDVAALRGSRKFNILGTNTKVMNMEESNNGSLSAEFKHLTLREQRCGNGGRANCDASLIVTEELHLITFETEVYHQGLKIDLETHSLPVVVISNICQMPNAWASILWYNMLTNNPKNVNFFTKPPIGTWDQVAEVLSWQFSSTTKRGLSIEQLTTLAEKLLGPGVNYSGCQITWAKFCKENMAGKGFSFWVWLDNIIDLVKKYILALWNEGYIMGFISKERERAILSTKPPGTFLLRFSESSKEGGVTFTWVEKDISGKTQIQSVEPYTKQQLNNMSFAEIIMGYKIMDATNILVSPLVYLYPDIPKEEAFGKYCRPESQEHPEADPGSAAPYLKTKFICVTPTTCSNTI

On to `CC(C)C1(c2ccccc2)CN(C(=O)[C@@H]2CC[C@@H]3C[C@@H]4C[C@@H]4C[C@H](NC(=O)c4cc5cc(C(F)(F)P(=O)(O)O)ccc5s4)C(=O)N32)C1` [Compound 79, (difluoro(2-(((3S,6S,7aR,8aS,9aR)-3-(3-isopropyl-3-phenylazetidine-1-carbonyl)-5-oxodecahydro-1H-cyclopropa[d]pyrrolo[1,2-a]azocin-6-yl)carbamoyl)benzo[b]thiophen-5-yl)methyl)phosphonic acid], for which the IC50 in test [1] is 3000 to 30000 nM; in test [2], below 100 nM.
The like results for `O=C(N[C@H]1C[C@H]2C[C@H]2C[C@H]2CC[C@@H](C(=O)N3CC(c4ncccn4)C3)N2C1=O)c1cc2cc(C(F)(F)P(=O)(O)O)ccc2s1` [Compound 80, (difluoro(2-(((3S,6S,7aR,8aS,9aR)-5-oxo-3-(3-(pyrimidin-2-yl)azetidine-1-carbonyl)decahydro-1H-cyclopropa[d]pyrrolo[1,2-a]azocin-6-yl)carbamoyl)benzo[b]thiophen-5-yl)methyl)phosphonic acid] were, in that order, 3000 to 30000 nM and below 100 nM.
In the case of `Cc1nnc(C2CN(C(=O)[C@@H]3CC[C@@H]4C[C@@H]5C[C@@H]5C[C@H](NC(=O)c5cc6cc(C(F)(F)P(=O)(O)O)ccc6s5)C(=O)N43)C2)[nH]1` [Compound 81, (difluoro(2-(((3S,6S,7aR,8aS,9aR)-3-(3-(5-methyl-4H-1,2,4-triazol-3-yl)azetidine-1-carbonyl)-5-oxodecahydro-1H-cyclopropa[d]pyrrolo[1,2-a]azocin-6-yl)carbamoyl)benzo[b]thiophen-5-yl)methyl)phosphonic acid], the figures for the IC50 in test [1] and in test [2] were 300 to 3000 nM and below 100 nM, respectively.
The like results for `Cc1nnc(C2(C)CN(C(=O)[C@@H]3CC[C@@H]4C[C@@H]5C[C@@H]5C[C@H](NC(=O)c5cc6cc(C(F)(F)P(=O)(O)O)ccc6s5)C(=O)N43)C2)o1` [Compound 82, (difluoro(2-(((3S,6S,7aR,8aS,9aR)-3-(3-methyl-3-(5-methyl-1,3,4-oxadiazol-2-yl)azetidine-1-carbonyl)-5-oxodecahydro-1H-cyclopropa[d]pyrrolo[1,2-a]azocin-6-yl)carbamoyl)benzo[b]thiophen-5-yl)methyl)phosphonic acid] were, in that order, 300 to 3000 nM and below 100 nM.
For the molecule `CS(=N)(=O)CC1CN(C(=O)[C@@H]2CC[C@@H]3C[C@@H]4C[C@@H]4C[C@H](NC(=O)c4cc5cc(C(F)(F)P(=O)(O)O)ccc5s4)C(=O)N32)C1` (stereo partly drawn) [Compound 83, (difluoro(2-(((3S,6S,7aR,8aS,9aR)-3-(3-((S-methysulfonimidoyl)methyl)azetidine-1-carbonyl)-5-oxodecahydro-1H-cyclopropa[d]pyrrolo[1,2-a]azocin-6-yl)carbamoyl)benzo[b]thiophen-5-yl)methyl)phosphonic acid], the IC50 in test [1] was 3000 to 30000 nM; in test [2] it was below 100 nM.
The like results for `COCC1(c2ccccc2)CN(C(=O)[C@@H]2CC[C@@H]3C[C@@H]4C[C@@H]4C[C@H](NC(=O)c4cc5cc(C(F)(F)P(=O)(O)O)ccc5s4)C(=O)N32)C1` [Compound 84, (difluoro(2-(((3S,6S,7aR,8aS,9aR)-3-(3-(methoxymethyl)-3-phenylazetidine-1-carbonyl)-5-oxodecahydro-1H-cyclopropa[d]pyrrolo[1,2-a]azocin-6-yl)carbamoyl)benzo[b]thiophen-5-yl)methyl)phosphonic acid] were, in that order, 3000 to 30000 nM and below 100 nM.
The like results for `Cc1ccccc1C1CN(C(=O)[C@@H]2CC[C@@H]3C[C@H]4C[C@H]4C[C@H](NC(=O)c4cc5cc(C(F)(F)P(=O)(O)O)ccc5s4)C(=O)N32)C1` [Compound 85, (difluoro(2-(((3S,6S,7aS,8aR,9aR)-5-oxo-3-(3-(o-tolyl)azetidine-1-carbonyl)decahydro-1H-cyclopropa[d]pyrrolo[1,2-a]azocin-6-yl)carbamoyl)benzo[b]thiophen-5-yl)methyl)phosphonic acid] were, in that order, 300 to 3000 nM and below 100 nM.
For the molecule `O=C(N[C@H]1C[C@@H]2C[C@@H]2C[C@H]2CC[C@@H](C(=O)N3CC(C(=O)N4CC(c5ccccn5)C4)C3)N2C1=O)c1cc2cc(C(F)(F)P(=O)(O)O)ccc2s1` [Compound 86, (difluoro(2-(((3S,6S,7aS,8aR,9aR)-5-oxo-3-(3-(3-(pyridin-2-yl)azetidine-1-carbonyl)azetidine-1-carbonyl)decahydro-1H-cyclopropa[d]pyrrolo[1,2-a]azocin-6-yl)carbamoyl)benzo[b]thiophen-5-yl)methyl)phosphonic acid], the IC50 is 3000 to 30000 nM in test [1] and below 100 nM in test [2].
In the case of `O=C(N[C@H]1C[C@@H]2C[C@@H]2C[C@H]2CC[C@@H](C(=O)N3CC(O)(c4ccccn4)C3)N2C1=O)c1cc2cc(C(F)(F)P(=O)(O)O)ccc2s1` [Compound 87, (difluoro(2-(((3S,6S,7aS,8aR,9aR)-3-(3-hydroxy-3-(pyridin-2-yl)azetidine-1-carbonyl)-5-oxodecahydro-1H-cyclopropa[d]pyrrolo[1,2-a]azocin-6-yl)carbamoyl)benzo[b]thiophen-5-yl)methyl)phosphonic acid], the IC50 is 3000 to 30000 nM in test [1] and below 100 nM in test [2].
In the same order, the values of `COc1ccc(C2CCN(C(=O)[C@@H]3CC[C@@H]4C[C@H]5C[C@H]5C[C@H](NC(=O)c5cc6cc(C(F)(F)P(=O)(O)O)ccc6s5)C(=O)N43)C2)cn1` (stereo partly drawn) [Compound 88, (difluoro(2-(((3S,6S,7aS,8aR,9aR)-3-(3-(6-methoxypyridin-3-yl)pyrrolidine-1-carbonyl)-5-oxodecahydro-1H-cyclopropa[d]pyrrolo[1,2-a]azocin-6-yl)carbamoyl)benzo[b]thiophen-5-yl)methyl)phosphonic acid] are 300 to 3000 nM and below 100 nM.
In the same order, the values of `N#CC1(c2ccccn2)CN(C(=O)[C@@H]2CC[C@@H]3C[C@H]4C[C@H]4C[C@H](NC(=O)c4cc5cc(C(F)(F)P(=O)(O)O)ccc5s4)C(=O)N32)C1` [Compound 89, ((2-(((3S,6S,7aS,8aR,9aR)-3-(3-cyano-3-(pyridin-2-yl)azetidine-1-carbonyl)-5-oxodecahydro-1H-cyclopropa[d]pyrrolo[1,2-a]azocin-6-yl)carbamoyl)benzo[b]thiophen-5-yl)difluoromethyl)phosphonic acid] are 300 to 3000 nM and below 100 nM.
The like results for `O=C(N[C@H]1C[C@@H]2C[C@@H]2C[C@H]2CC[C@@H](C(=O)N3CC4(CC(=O)c5nccn54)C3)N2C1=O)c1cc2cc(C(F)(F)P(=O)(O)O)ccc2s1` [Compound 90, (difluoro(2-(((3S,6S,7aS,8aR,9aR)-5-oxo-3-(7′-oxo-6′,7′-dihydrospiro[azetidine-3,5′-pyrrolo[1,2-a]imidazole]-1-carbonyl)decahydro-1H-cyclopropa[d]pyrrolo[1,2-a]azocin-6-yl)carbamoyl)benzo[b]thiophen-5-yl)methyl)phosphonic acid] were, in that order, 300 to 3000 nM and below 100 nM.
`O=C(N[C@H]1C[C@@H]2C[C@@H]2C[C@H]2CC[C@@H](C(=O)N3CC(N4CCOCC4)C3)N2C1=O)c1cc2cc(C(F)(F)P(=O)(O)O)ccc2s1` [Compound 91, (difluoro(2-(((3S,6S,7aS,8aR,9aR)-3-(3-morpholinoazetidine-1-carbonyl)-5-oxodecahydro-1H-cyclopropa[d]pyrrolo[1,2-a]azocin-6-yl)carbamoyl)benzo[b]thiophen-5-yl)methyl)phosphonic acid]: the IC50 was in the range of 3000 to 30000 nM in test [1] and 100 to 1000 nM in test [2].
The like results for `CC(=O)N1CCC2(C1)CN(C(=O)[C@@H]1CC[C@@H]3C[C@H]4C[C@H]4C[C@H](NC(=O)c4cc5cc(C(F)(F)P(=O)(O)O)ccc5s4)C(=O)N31)C2` [Compound 92, ((2-(((35,6S,7aS,8aR,9aR)-3-(6-acetyl-2,6-diazaspiro[3.4]octane-2-carbonyl)-5-oxodecahydro-1H-cyclopropa[d]pyrrolo[1,2-a]azocin-6-yl)carbamoyl)benzo[b]thiophen-5-yl)difluoromethyl)phosphonic acid] were, in that order, 3000 to 30000 nM and 100 to 1000 nM.
On to `CC1(C(=O)N2CCOCC2)CN(C(=O)[C@@H]2CC[C@@H]3C[C@H]4C[C@H]4C[C@H](NC(=O)c4cc5cc(C(F)(F)P(=O)(O)O)ccc5s4)C(=O)N32)C1` [Compound 93, (difluoro(2-(((3S,6S,7aS,8aR,9aR)-3-(3-methyl-3-(morpholine-4-carbonyl)azetidine-1-carbonyl)-5-oxodecahydro-1H-cyclopropa[d]pyrrolo[1,2-a]azocin-6-yl)carbamoyl)benzo[b]thiophen-5-yl)methyl)phosphonic acid], for which the figures for the half-maximal inhibitory concentration (IC50) in test [1] and in test [2] were 3000 to 30000 nM and 100 to 1000 nM, respectively.
